PMC11157491, “Novel Alaninamide Derivatives with Drug-like Potential for Development as Antiseizure and Antinociceptive Therapies—In Vitro and In Vivo Characterization” (ACS Chemical Neuroscience, 2024)

What was measured:
[1] = system: mice; assay: Grip strength test; assay type: in vivo; conditions: 50 mg/kg i.p., 30 min before test
Protocol: The grip strength test was performed just before the ivPTZ test to assess the acute effect of compounds 26 and 28 on neuromuscular strength.
(§1) In studies assessing the acute effect of compounds 26 and 28 on the ivPTZ seizure threshold and neuromuscular strength, the compounds were suspended in a 1% solution of Tween 80 and administered i.p., at a dose of 50 mg/kg of body weight, 30 min before the tests. The experimental procedures of the timed ivPTZ test and the grip strength test were described in detail elsewhere.[64]
(§2) Data from the ivPTZ test and the grip strength test were analyzed using Student’s t-test.
Figure S1. Acute effects of compound 26 (A) and 28 (B) on grip strength in mice. Both compounds were administered i.p. at a dose of 50 mg/kg, 30 min before the test. Control animals received vehicle. Data are presented as means ± SEM of grip strength expressed in mN/g of body weight (n = 10animals). The statistical significance was evaluated by a Student's t test (GraphPad Prism 8). […]
Behavioral tests were performed 24 h after the last PTZ injection. […] The statistical significance was evaluated by one-way ANOVA followed by the Tukey’s post hoc test: *p < 0.05, (GraphPad Prism 8). […]

[2] = system: mice; assay: Timed ivPTZ seizure threshold test; assay type: in vivo; conditions: 50 mg/kg i.p.
From the text: The timed intravenous (iv) PTZ-induced seizure test was used to characterize the acute effect of compounds 26 and 28 on the thresholds for myoclonic, clonic, and tonic seizure in mice (Figure 2). It is noteworthy that the ivPTZ seizure test is a very sensitive method for determining the compounds’ effects on seizure threshold in rodents.[35] […] In the ivPTZ seizure test, bilateral forelimb tonic extension is usually quickly followed by hindlimb tonic extension and death due to respiratory arrest. […] In mice with no forelimb tonus, PTZ infusion was stopped after 180 s and the threshold dose of PTZ (in mg/kg) was calculated in those mice taking 180 s as infusion duration.
Figure 2 Acute effects of compounds 26 (A) and 28 (B) on seizure thresholds in the timed ivPTZ seizure test in mice. Both compounds were administered i.p. at a dose of 50 mg/kg, 30 min before the test. Control animals received vehicle. Data are presented as means (mg/kg PTZ) ± SEM (n = 9–13 animals). The statistical significance was evaluated by a Student’s t-test: *p < 0.05, **p < 0.01, ***p < 0.001, and ****p < 0.0001, as compared to the vehicle-treated group (GraphPad Prism 8).
as §1, §2

[3] = target: T1, Cav1.2 (h) calcium ion channel (Homo sapiens, UniProt Q13936); assay: Cav1.2 cell-based antagonist calcium flux assay; conditions: HEK293, human recombinant HEK-293 cell, read-out: % inhibition of control agonist response
T1 construct: Eurofins (contract assay)
T1 sequence (Q13936 whole entry): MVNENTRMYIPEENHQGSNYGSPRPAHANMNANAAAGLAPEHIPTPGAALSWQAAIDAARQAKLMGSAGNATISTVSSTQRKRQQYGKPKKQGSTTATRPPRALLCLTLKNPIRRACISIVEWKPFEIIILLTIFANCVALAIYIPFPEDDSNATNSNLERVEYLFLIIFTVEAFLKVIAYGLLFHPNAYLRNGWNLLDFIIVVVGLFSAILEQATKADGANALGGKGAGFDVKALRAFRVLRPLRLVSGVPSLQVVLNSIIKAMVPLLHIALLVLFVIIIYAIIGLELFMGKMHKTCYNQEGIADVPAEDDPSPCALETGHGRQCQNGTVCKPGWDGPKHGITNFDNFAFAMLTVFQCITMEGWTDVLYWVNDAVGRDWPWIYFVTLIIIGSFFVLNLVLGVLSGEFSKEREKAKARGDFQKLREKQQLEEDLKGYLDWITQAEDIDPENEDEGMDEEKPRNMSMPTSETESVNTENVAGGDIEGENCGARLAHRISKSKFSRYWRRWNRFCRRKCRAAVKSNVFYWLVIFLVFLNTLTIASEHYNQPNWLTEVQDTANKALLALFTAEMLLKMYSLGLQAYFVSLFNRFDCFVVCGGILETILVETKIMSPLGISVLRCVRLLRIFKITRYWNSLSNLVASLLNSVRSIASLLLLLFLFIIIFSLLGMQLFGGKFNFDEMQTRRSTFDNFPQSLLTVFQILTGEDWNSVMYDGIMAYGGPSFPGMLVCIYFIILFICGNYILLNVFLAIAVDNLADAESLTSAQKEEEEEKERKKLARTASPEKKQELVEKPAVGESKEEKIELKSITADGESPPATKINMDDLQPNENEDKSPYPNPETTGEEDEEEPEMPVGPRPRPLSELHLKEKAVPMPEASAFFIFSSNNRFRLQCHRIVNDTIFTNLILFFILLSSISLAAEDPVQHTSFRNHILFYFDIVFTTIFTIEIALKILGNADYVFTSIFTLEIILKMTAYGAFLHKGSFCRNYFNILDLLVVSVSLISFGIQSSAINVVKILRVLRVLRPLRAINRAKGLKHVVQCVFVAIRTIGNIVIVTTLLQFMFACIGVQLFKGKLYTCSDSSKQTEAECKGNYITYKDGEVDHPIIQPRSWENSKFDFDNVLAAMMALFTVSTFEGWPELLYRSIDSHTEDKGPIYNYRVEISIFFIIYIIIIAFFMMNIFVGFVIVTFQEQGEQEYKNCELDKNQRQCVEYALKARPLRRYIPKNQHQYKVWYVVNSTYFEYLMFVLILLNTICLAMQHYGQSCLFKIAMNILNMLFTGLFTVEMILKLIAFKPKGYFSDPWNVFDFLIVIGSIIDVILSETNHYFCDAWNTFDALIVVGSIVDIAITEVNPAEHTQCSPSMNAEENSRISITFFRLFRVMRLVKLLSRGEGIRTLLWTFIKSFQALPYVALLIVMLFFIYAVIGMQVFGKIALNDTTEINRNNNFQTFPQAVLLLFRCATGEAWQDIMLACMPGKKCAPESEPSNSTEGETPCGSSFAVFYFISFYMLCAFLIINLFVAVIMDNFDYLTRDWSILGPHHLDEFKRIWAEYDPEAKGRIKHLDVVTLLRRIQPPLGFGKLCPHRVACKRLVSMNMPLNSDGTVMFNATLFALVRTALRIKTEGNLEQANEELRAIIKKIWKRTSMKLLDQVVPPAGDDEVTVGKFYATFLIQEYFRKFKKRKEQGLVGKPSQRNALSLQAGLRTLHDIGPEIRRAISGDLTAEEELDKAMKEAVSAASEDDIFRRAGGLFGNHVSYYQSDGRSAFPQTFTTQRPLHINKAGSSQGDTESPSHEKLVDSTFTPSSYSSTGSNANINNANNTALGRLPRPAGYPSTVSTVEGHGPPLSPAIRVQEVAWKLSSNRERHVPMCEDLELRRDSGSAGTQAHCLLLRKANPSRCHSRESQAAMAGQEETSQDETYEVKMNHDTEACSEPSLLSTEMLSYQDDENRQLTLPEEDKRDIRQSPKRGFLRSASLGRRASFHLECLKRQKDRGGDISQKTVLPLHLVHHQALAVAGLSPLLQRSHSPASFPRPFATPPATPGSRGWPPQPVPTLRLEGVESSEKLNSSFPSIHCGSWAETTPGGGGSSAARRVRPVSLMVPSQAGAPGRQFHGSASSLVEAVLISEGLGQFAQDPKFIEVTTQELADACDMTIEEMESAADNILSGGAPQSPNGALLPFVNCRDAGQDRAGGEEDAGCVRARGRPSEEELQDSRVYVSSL
T1 sequence (Q08289 whole entry partner): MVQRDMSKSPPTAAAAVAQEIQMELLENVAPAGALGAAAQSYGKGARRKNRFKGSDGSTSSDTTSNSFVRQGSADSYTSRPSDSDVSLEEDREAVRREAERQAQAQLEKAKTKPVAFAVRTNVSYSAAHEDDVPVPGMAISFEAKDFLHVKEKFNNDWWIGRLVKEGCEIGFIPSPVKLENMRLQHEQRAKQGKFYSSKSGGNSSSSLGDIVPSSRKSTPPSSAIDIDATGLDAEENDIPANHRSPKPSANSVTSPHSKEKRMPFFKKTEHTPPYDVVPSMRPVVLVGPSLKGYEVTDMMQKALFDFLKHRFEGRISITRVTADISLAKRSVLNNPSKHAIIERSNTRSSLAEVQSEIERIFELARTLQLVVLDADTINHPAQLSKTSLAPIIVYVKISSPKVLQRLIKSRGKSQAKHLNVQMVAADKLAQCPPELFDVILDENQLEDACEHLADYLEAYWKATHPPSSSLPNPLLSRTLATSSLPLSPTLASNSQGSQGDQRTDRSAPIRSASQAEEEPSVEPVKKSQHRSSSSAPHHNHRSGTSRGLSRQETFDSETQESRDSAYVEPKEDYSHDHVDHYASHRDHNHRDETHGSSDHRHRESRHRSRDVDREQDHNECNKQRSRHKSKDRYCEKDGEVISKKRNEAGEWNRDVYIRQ
T1 sequence (P54289 25-956 partner limits assumed): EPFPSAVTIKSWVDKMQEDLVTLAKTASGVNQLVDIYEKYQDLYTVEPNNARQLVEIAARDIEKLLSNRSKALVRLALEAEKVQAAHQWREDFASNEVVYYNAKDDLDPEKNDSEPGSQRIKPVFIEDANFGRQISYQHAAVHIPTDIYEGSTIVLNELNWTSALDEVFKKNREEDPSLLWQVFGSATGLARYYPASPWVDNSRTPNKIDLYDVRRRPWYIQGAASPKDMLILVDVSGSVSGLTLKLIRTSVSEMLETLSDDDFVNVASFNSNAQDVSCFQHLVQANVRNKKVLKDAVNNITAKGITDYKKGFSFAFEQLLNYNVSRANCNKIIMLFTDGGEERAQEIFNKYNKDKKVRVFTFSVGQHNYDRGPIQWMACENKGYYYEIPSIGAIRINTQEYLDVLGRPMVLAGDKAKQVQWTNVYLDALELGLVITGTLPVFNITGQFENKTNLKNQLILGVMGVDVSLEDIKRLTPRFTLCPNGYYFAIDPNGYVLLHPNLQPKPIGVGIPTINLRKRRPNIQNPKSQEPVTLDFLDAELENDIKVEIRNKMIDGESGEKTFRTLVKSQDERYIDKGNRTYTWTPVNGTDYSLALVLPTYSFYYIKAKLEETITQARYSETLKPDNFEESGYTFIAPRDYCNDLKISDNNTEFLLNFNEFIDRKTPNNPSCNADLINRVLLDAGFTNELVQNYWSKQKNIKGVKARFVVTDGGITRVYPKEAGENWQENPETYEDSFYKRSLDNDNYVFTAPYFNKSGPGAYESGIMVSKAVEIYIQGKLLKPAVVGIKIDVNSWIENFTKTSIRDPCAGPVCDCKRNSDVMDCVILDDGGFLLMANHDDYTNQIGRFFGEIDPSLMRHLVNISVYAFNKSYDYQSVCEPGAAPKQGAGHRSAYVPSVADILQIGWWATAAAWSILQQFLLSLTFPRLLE
T1 sequence (P54289 957-1103 partner limits assumed): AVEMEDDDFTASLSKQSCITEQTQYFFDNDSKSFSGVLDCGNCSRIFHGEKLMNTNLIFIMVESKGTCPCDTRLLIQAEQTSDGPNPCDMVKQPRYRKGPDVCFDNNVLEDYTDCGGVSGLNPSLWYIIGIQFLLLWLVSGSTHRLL
Protocol: (§3) Importantly, sodium or calcium conductance is often associated with the pathophysiology of epilepsy as well as neuropathic pain.[46]−[50] Therefore, both sodium and calcium ion channels are well-established molecular targets for structurally diverse ASMs such as LCS, lamotrigine, carbamazepine, oxcarbazepine, etc.[51] Consequently, we carried out binding and/or functional studies toward the sodium channel (site 2) and calcium Cav1.2 channel at high concentrations (100 μM) of 26 and 28 (Table 5). […] Next, 26 and 28 due to the presence of the phenylpiperazine moiety, which is a well-recognized pharmacophore for serotoninergic receptor (5-HTxR) ligands,[52] were evaluated for their influence on 5-HT2CR, where stimulation plays a key role for the antiseizure activity of lorcaserin (one of the newest ASMs).[6]
(§4) Binding/functional studies were carried out commercially in Eurofins Laboratories (Poitiers, France) and Eurofins Panlabs Discovery Services Taiwan, Ltd. (New Taipei City, Taiwan) using testing procedures that were reported previously (for details, see Table S2).
(§5) Table S2. Radioligand binding and functional assays. […]
Cav1.2 (L-type) (h) calcium ion channel cell-based antagonist calcium flux assay […]
(§6) Assays were performed commercially in Eurofins Laboratories ( Poitiers, France) or Eurofins Panlabs Discovery Services
(§7) Taiwan, Ltd. (New Taipei City, Taiwan).

[4] = target: CYP2D6 (Homo sapiens, UniProt P10635); conditions: 1 μM
CYP2D6, sequence (P10635 whole entry): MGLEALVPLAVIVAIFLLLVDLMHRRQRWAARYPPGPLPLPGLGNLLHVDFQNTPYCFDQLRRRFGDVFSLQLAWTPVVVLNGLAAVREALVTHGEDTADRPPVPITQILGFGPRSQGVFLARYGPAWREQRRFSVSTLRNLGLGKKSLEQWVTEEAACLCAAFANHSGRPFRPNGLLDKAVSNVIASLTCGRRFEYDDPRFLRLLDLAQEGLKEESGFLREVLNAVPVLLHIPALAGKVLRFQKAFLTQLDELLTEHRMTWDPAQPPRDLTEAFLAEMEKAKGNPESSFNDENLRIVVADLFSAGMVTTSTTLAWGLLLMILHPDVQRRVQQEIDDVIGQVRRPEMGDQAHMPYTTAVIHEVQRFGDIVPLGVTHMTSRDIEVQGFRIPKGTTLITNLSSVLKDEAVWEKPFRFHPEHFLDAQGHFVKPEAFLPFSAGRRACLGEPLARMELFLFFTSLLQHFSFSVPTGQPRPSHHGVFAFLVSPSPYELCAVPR

[5] = system: Na^+ channel (site 2); assay: Na+ channel (site 2) radioligand binding; conditions: 100 μM, rat cerebral cortex
Protocol: as §3, §4, §5, §6, §7

[6] = target: CYP3A4 (Homo sapiens, UniProt P08684); conditions: 1 μM
CYP3A4, sequence (P08684 whole entry): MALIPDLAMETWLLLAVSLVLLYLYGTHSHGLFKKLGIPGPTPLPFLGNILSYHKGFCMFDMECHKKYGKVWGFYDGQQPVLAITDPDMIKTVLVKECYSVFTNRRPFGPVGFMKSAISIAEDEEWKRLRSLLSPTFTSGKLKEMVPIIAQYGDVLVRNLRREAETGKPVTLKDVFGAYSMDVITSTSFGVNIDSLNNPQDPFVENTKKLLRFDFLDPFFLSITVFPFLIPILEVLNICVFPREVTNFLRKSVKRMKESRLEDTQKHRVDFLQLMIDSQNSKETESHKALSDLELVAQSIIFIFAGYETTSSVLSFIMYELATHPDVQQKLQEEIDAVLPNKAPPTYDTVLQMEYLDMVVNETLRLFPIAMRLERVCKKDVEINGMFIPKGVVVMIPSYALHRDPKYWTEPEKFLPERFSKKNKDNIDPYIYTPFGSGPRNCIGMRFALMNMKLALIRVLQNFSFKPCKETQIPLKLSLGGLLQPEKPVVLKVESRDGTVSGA

[7] = system: mice; assay: 6 Hz (44 mA) model of pharmacoresistant seizures; assay type: in vivo; conditions: Mus musculus, ip, pretreatment 0.5 h
Protocol: Based on the promising pharmacological data for 26 and 28, and especially potent protection in the 6 Hz (32 mA) seizure model, both compounds were tested subsequently in the 6 Hz seizure model, applying a higher current intensity of 44 mA (Table 3). Importantly, this test is recognized as one of the key animal models of pharmacoresistant seizures, utilized in the early stage of new ASMs’ development.
In the initial screening studies, four mice per group were randomly assigned to each experimental group (each mouse was used only once). To evaluate the ED50 or TD50 values, four groups consisting of eight animals were injected with various doses of tested compounds. The protective indexes (PIs) for the compounds investigated and reference ASMs were calculated by dividing the TD50 value, as determined in the chimney test, by the respective ED50 value, as determined in the MES, scPTZ, or 6 Hz (32 or 44 mA) tests (PI = TD50/ED50). The PIs are a measure of the potential therapeutic window of the tested agent.
All substances were suspended in Tween 80 (1% aqueous solution) and administered i.p. as a single injection at a dose of 10 mL/kg. On each day of experimentation, fresh solutions were prepared. […]

[8] = system: human liver microsomes (HLMs); assay: Metabolic stability in human liver microsomes; assay type: in vitro ADME
From the text: Molecular mass Molecular mass of the
Substrate (m/z) metabolite (m/z) Metabolic pathway
* Reference unstable drug; metabolic stability determined using the same procedure published previously

[9] = system: human serum albumin (HSA) and α1-acid glycoprotein (AGP)

Row | CYP2D6 activity (% of control ± SD) [4] | % inhibition of control specific binding [5] | CYP3A4 activity (% of control ± SD) [6] | number of metabolites found after incubation with HLMs [8] | metabolic pathway of metabolite M1 ([8]; MS supported by MetaSite) | metabolic pathway of metabolite M2 ([8]; MS supported by MetaSite) | plasma protein binding—KD [9] | metabolic pathway of metabolite M3 ([8]; MS supported by MetaSite) | SMILES | neuromuscular strength (grip strength) [1] | mice in which hindlimb tonus (only) was diminished/inhibited ([2]; 12 mice) | seizure threshold for generalized clonic seizure with loss of righting reflex ([2]; 30 min before ivPTZ) | seizure threshold for the first myoclonic twitch ([2]; 30 min before ivPTZ) | threshold for forelimb tonus ([2]; 30 min before ivPTZ) | inhibition at 100 µM [3] | ED50 [7] | mice in which both fore- and hindlimb tonus were completely inhibited ([2]; 12 mice)
1 | 122.8 ± 11.7% | 4.5 (100) % | 114.1 ± 8.7% | two | dehydrogenation and oxidation | dehydrogenation and oxidation | 1670.0 µM |  | CC(=O)NC(C)C(=O)N1CCN(c2cccc(C(F)(F)F)c2)CC1 (centres unmarked) [Compound 26, N-(1-oxo-1-(4-(3-(Trifluoromethyl)phenyl)piperazin-1-yl)propan-2-yl)acetamide] | Neither compound 26 nor 28 (50 mg/kg) significantly affect | 10 out of 12 | significantly raised | significantly raised | did not significantly affect | 7% | 29.9 mg/kg | 
2 | 115.0 ± 4.5% | –6.9 (100) % | 91.3 ± 12.7% | three | double dehydrogenation | hydroxylation | 1260.0 µM | double dehydrogenation | CC(=O)NC(C)C(=O)N1CCN(c2cccc(OC(F)(F)F)c2)CC1 (centres unmarked) [Compound 28, N-(1-oxo-1-(4-(3-(Trifluoromethoxy)phenyl)piperazin-1-yl)propan-2-yl)acetamide] | Neither compound 26 nor 28 (50 mg/kg) significantly affect | 3 mice | significantly raised | significantly raised |  | -7.9% | 29.5 mg/kg | 9 out of 12
